“And” between values parts separate entries of the source, which are not always exact repeats. Identical values can stand only once. Toxic doses and inconclusive results are not listed. Rule for the calls: active = survival T/C of 150% or more; inactive = T/C below 125% in these data. Numbered stars: 1 amine (or outer) side, 2 acyl side, 3 side chain; on linkers, the order of the positions; unused ones are H or OH. Square brackets hold non-standard residues; d marks the D form. Peptide text beside a SMILES is read from it. * marks the point of attachment. X18 = CCC(=O)CC1CC(C)CC(C(=O)[*:2])N1[*:1]; X17 = CCCCCCCCC(C)C(=O)*; Aib = CC(C)(N)C(=O)O; X19 = CC(CN(C)CCO)N*
System: P388 leukemia ip, CD2F1 mice, survival T/C
Experiment: NCI In Vivo Anticancer Drug Screen. Data for tumor model P388 Leukemia (intraperitoneal) in CD2F1 (CDF1) mice
Details: endpoint: median survival time, higher = longer survival
Outline: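 Mice carrying the transplanted tumor received test compound or vehicle. Survival was recorded in each group, and the value is the treated-group measurement divided by that of the vehicle-treated control group.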

[1] = dose: 100.0 mg/kg/injection, schedule: Q01DX009 (ip), vehicle: saline with Tween-80
[2] = dose: 400.0 mg/kg/injection, schedule: Q01DX009 (ip), vehicle: saline with Tween-80
[3] = dose: 50.0 mg/kg/injection, schedule: Q01DX005 (ip), vehicle: saline with Tween-80
[4] = dose: 100.0 mg/kg/injection, schedule: Q01DX005 (ip), vehicle: saline with Tween-80
[5] = dose: 50.0 mg/kg/injection, schedule: Q01DX009 (ip), vehicle: saline with Tween-80
[6] = dose: 200.0 mg/kg/injection, schedule: Q01DX005 (ip), vehicle: saline with Tween-80
[7] = dose: 50.0 mg/kg/injection, schedule: Q01DX009 (ip), vehicle: Klucel (hydroxypropylcellulose) (HPC)

Measured: T/C

C[S+]1C2(C3CC4CC(C3)CC2C4)C12C1CC3CC(C1)CC2C3 (stereo not given)
inactive: dose: 50.0 mg/kg/injection, schedule: Q01DX005 (ip), vehicle: distilled water + alcohol 104 % of control | dose: 100.0 mg/kg/injection, schedule: Q01DX005 (ip), vehicle: distilled water + alcohol 109 % of control

CC(C)(C)c1ccc(OS(=O)(=O)c2cccc([N+](=O)[O-])c2)cc1
inactive: [1] 95 % of control | dose: 200.0 mg/kg/injection, schedule: Q01DX009 (ip), vehicle: saline with Tween-80 100 % of control | [2] 100 % of control

[N-]=[N+]=NC(=O)Nc1ccccc1F
inactive: dose: 3.75 mg/kg/injection, schedule: Q01DX005 (ip), vehicle: Klucel (hydroxypropylcellulose) (HPC) 96 % of control | dose: 7.5 mg/kg/injection, schedule: Q01DX005 (ip), vehicle: Klucel (hydroxypropylcellulose) (HPC) 90 % of control and 97 % of control | dose: 15.0 mg/kg/injection, schedule: Q01DX005 (ip), vehicle: Klucel (hydroxypropylcellulose) (HPC) 104 % of control

CCCCCCCCC(C)C(=O)N1CCCC1C(=O)N1C(CC(=O)CC)CC(C)CC1C(=O)NC(C)C(=O)NC(C)(C)C(=O)NC(C)(C)C(=O)NC(C(=O)NC(C)C(=O)NC(C)(C)C(=O)NC(C)(C)C(=O)NC(C)CN(C)CCO)C(C)CC (stereo not given) (X17-P[X18]A[Aib][Aib]IA[Aib][Aib]-X19; configuration not given here)
inactive: dose: 0.62 mg/kg/injection, schedule: Q01DX009 (ip), vehicle: Klucel (hydroxypropylcellulose) (HPC) 120 % of control | dose: 1.25 mg/kg/injection, schedule: Q01DX009 (ip), vehicle: Klucel (hydroxypropylcellulose) (HPC) 118 % of control | dose: 2.5 mg/kg/injection, schedule: Q01DX009 (ip), vehicle: Klucel (hydroxypropylcellulose) (HPC) 110 % of control

Nc1nc2nc3c(nc2c(=O)[nH]1)C(=O)N(c1ccc(C(=O)O)cc1)C3
inactive: dose: 6.25 mg/kg/injection, schedule: Q04DX003 (ip), vehicle: saline with Tween-80 111 % of control | dose: 12.5 mg/kg/injection, schedule: Q04DX003 (ip), vehicle: saline with Tween-80 98 % of control | dose: 25.0 mg/kg/injection, schedule: Q04DX003 (ip), vehicle: saline with Tween-80 100 % of control and 103 % of control

CCOC(=NC#N)NOC
inactive: dose: 60.0 mg/kg/injection, schedule: Q01DX005 (ip), vehicle: Klucel (hydroxypropylcellulose) (HPC) 93 % of control | dose: 120.0 mg/kg/injection, schedule: Q01DX005 (ip), vehicle: Klucel (hydroxypropylcellulose) (HPC) 98 % of control | dose: 240.0 mg/kg/injection, schedule: Q01DX005 (ip), vehicle: Klucel (hydroxypropylcellulose) (HPC) 102 % of control

C=C1C(=O)C23[C@H](O)C1CC[C@H]2[C@]12COC3(O)[C@@H](O)[C@@H]1C(C)(C)CC[C@@H]2O
inactive: dose: 6.25 mg/kg/injection, schedule: Q01DX009 (ip), vehicle: saline with Tween-80 113 % of control | dose: 8.0 mg/kg/injection, schedule: Q01DX009 (ip), vehicle: saline with Tween-80 106 % of control | dose: 9.0 mg/kg/injection, schedule: Q01DX009 (ip), vehicle: saline with Tween-80 117 % of control | dose: 12.5 mg/kg/injection, schedule: Q01DX009 (ip), vehicle: saline with Tween-80 104 % of control | dose: 25.0 mg/kg/injection, schedule: Q01DX009 (ip), vehicle: saline with Tween-80 104 % of control | dose: 27.0 mg/kg/injection, schedule: Q01DX009 (ip), vehicle: saline with Tween-80 121 % of control

COc1cc(NC(C)CCCNC(C)C)c2ncccc2c1 (stereo not given)
inactive: dose: 6.25 mg/kg/injection, schedule: Q01DX005 (ip), vehicle: saline with Tween-80 100 % of control | dose: 12.5 mg/kg/injection, schedule: Q01DX005 (ip), vehicle: saline with Tween-80 100 % of control

OC(CCl)Cn1nnc2c3ccccc3ccc21 (stereo not given)
inactive: dose: 25.0 mg/kg/injection, schedule: Q01DX005 (ip), vehicle: saline with Tween-80 101 % of control | [3] 101 % of control | [4] 101 % of control | dose: 100.0 mg/kg/injection, schedule: Q04DX003 (ip), vehicle: saline with Tween-80 99 % of control | dose: 200.0 mg/kg/injection, schedule: Q04DX003 (ip), vehicle: saline with Tween-80 94 % of control

O=C(O)C(O)C1CCCCC1 (stereo not given)
inactive: [5] 104 % of control | [1] 92 % of control

Cc1c(C)c2ccc(OCCCN3CCN(Cc4ccc(Cl)cc4)CC3)cc2oc1=O
inactive: dose: 50.0 mg/kg/injection, schedule: Q01DX009 (ip), vehicle: suspension in saline 88 % of control | dose: 100.0 mg/kg/injection, schedule: Q01DX009 (ip), vehicle: suspension in saline 91 % of control

COC(=O)c1ccc(N(C)CC/C(CN)=N/NC(N)=O)cc1
inactive: [3] 99 % of control | [4] 91 % of control | [6] 87 % of control

COCCCC12C=C(OC)C(=O)C=C1OC(c1cc(OC)c(OC)c(OC)c1)C2C (stereo not given)
inactive: dose: 8.75 mg/kg/injection, schedule: Q01DX005 (ip), vehicle: Klucel (hydroxypropylcellulose) (HPC) 100 % of control | dose: 17.5 mg/kg/injection, schedule: Q01DX005 (ip), vehicle: Klucel (hydroxypropylcellulose) (HPC) 106 % of control | dose: 35.0 mg/kg/injection, schedule: Q01DX005 (ip), vehicle: Klucel (hydroxypropylcellulose) (HPC) 96 % of control

O=Cc1c[nH]c2ccc(NC(=O)OCc3ccccc3)cc12
inactive: [5] 103 % of control | [1] 89 % of control | [2] 86 % of control

Cc1c(NC(=S)Nc2c(C(C)C)cccc2C(C)C)c(=O)n(-c2ccccc2)n1C
inactive: [7] 113 % of control | dose: 100.0 mg/kg/injection, schedule: Q01DX009 (ip), vehicle: Klucel (hydroxypropylcellulose) (HPC) 106 % of control | dose: 200.0 mg/kg/injection, schedule: Q01DX009 (ip), vehicle: Klucel (hydroxypropylcellulose) (HPC) 106 % of control

COC(=O)/C(C(C)=O)=C(\OC(C)=O)c1ccc(OC)c(OC)c1
inactive: dose: 60.0 mg/kg/injection, schedule: Q01DX005 (ip), vehicle: saline with Tween-80 94 % of control | dose: 120.0 mg/kg/injection, schedule: Q01DX005 (ip), vehicle: saline with Tween-80 100 % of control | dose: 240.0 mg/kg/injection, schedule: Q01DX005 (ip), vehicle: saline with Tween-80 92 % of control

Cc1cc2cc(C)c3c(Cl)nnc(Cl)c3c2o1
inactive: [3] 106 % of control | [4] 103 % of control | [6] 100 % of control

CC1(OC(=O)c2ccc(F)cc2)CC(C)(C)[N+]([O-])=N1 (stereo not given)
inactive: dose: 12.5 mg/kg/injection, schedule: Q01DX009 (ip), vehicle: other 113 % of control | dose: 25.0 mg/kg/injection, schedule: Q01DX009 (ip), vehicle: other 101 % of control | dose: 50.0 mg/kg/injection, schedule: Q01DX009 (ip), vehicle: other 118 % of control | dose: 100.0 mg/kg/injection, schedule: Q01DX009 (ip), vehicle: other 118 % of control | dose: 200.0 mg/kg/injection, schedule: Q01DX009 (ip), vehicle: other 123 % of control

COC(=O)C1C(CO)ON2CCC(OC)(OC)C12 (stereo not given)
inactive: dose: 50.0 mg/kg/injection, schedule: Q01DX005 (ip), vehicle: saline 99 % of control | dose: 100.0 mg/kg/injection, schedule: Q01DX005 (ip), vehicle: saline 92 % of control | dose: 200.0 mg/kg/injection, schedule: Q01DX005 (ip), vehicle: saline 96 % of control

C1CCNCC1.O=C([CH-]C(=O)C(F)(F)F)c1ccc2c(c1)C(=O)c1ccccc1-2.O=C([CH-]C(=O)C(F)(F)F)c1ccc2c(c1)C(=O)c1ccccc1-2.O=C([CH-]C(=O)C(F)(F)F)c1ccc2c(c1)C(=O)c1ccccc1-2.O=C([CH-]C(=O)C(F)(F)F)c1ccc2c(c1)C(=O)c1ccccc1-2.[Eu+3]
inactive: dose: 12.5 mg/kg/injection, schedule: Q01DX009 (ip), vehicle: Klucel (hydroxypropylcellulose) (HPC) 112 % of control | dose: 25.0 mg/kg/injection, schedule: Q01DX009 (ip), vehicle: Klucel (hydroxypropylcellulose) (HPC) 111 % of control | [7] 110 % of control

COC1OC(CO)C(O)C(O)C1O (stereo not given)
inactive: dose: 50.0 mg/kg/injection, schedule: Q01DX009 (ip), vehicle: saline 100 % of control | dose: 100.0 mg/kg/injection, schedule: Q01DX009 (ip), vehicle: saline 94 % of control and 104 % of control | dose: 100.0 mg/kg/injection, schedule: Q04DX003 (ip), vehicle: saline 109 % of control | dose: 200.0 mg/kg/injection, schedule: Q01DX009 (ip), vehicle: saline 101 % of control and 100 % of control | dose: 200.0 mg/kg/injection, schedule: Q04DX003 (ip), vehicle: saline 95 % of control | dose: 400.0 mg/kg/injection, schedule: Q01DX009 (ip), vehicle: saline 106 % of control and 101 % of control | dose: 400.0 mg/kg/injection, schedule: Q04DX003 (ip), vehicle: saline 95 % of control
